What was measured:
[1] = tested on: cathepsin L-like C1A Cys proteases; assay: Protease assay in leaf crude extracts, Z-Phe-Arg-MCA substrate; type: in vivo, Nicotiana benthamiana; conditions: three tested doses (0.5, 1, 2 mM), seven days post-treatment, ANOVA P>0.05
Description: Forty-two day-old N. benthamiana plants grown in greenhouse were used for the experiments. Each plant was sprayed evenly with 50 ml of 0.5 mM, 1 mM or 2 mM MeJA in water containing 0.1% (v/v) Triton X-100 (Sigma-Aldrich, Mississauga ON, Canada), or with 50 ml of 1 mM arachidonic acid (Girard et al., 2007) in the same solvent, and transferred for seven days in a Conviron growth chamber (Conviron, Winnipeg MB, Canada). Plants sprayed with 50 ml of 0.1% (v/v) Triton X-100 in water were used in parallel as negative controls to avoid confounding effects due to experimental conditions. […]
Whole leaf proteins were extracted from three 1-cm^2 leaf discs in 400 μl of ice-cold 50 mM Tris-HCl, pH 7.5, containing 150 mM NaCl, by disrupting the leaf samples with tungsten carbide beads (Qiagen, Mississauga ON, Canada) in a Mini-Beadbeater apparatus (BioSpec, Bartlesville Okla., USA). […] RuBisCO small subunit was detected using polyclonal IgG raised in rabbit against a synthetic small subunit peptide (Agrisera, Vännäs, Sweden) and alkaline phosphatase-conjugated goat anti-rabbit IgG as secondary antibodies (Sigma-Aldrich). RuBisCO large subunit was detected using polyclonal IgG raised in hen against a synthetic large subunit peptide (Agrisera) and alkaline phosphatase-conjugated goat anti-chicken IgG as secondary antibodies (Sigma-Aldrich). […]

A. tumefaciens = assay: Bacterial counts (CFU) in agroinfiltrated leaves; type: in vivo, Agrobacterium tumefaciens; conditions: control and treated leaves; after four or six days post-infiltration
Text: Two gene vectors were used for the agroinfiltration assays: an engineered pcambia2300 vector encoding the light and heavy chains of C5-1 fused to an N-terminal signal peptide sequence for cellular secretion (see Goulet et al., 2012 for details on gene construct); and the original (“empty”) pcambia2300 binary vector (CAMBIA, Canberra, Australia) as a control for agroinfection. The two binary vectors were electroporated into A. tumefaciens strain LBA4404 and the cultures were maintained in Luria-Bertani (LB) medium supplemented with 50 μg/ml kanamycin and 50 μg/ml rifampicin. For infiltration, bacteria were grown to stable phase at 28° C. to an OD600 of 1.0 and collected by centrifugation at 2,000 g. The bacterial pellets were resuspended in 10 mM 2-[N-morpholino] ethanesulfonic acid] (MES) buffer, pH 5.8, containing 100 μM acetosyringone and 10 mM MgCl2. Leaf infiltration was performed using a needle-less syringe as described earlier (D'Aoust et al., 2009), after mixing the C5-1 antibody (or empty vector) agrobacterial suspension with an equal volume of bacterial suspension carrying a binary vector for the protein silencing suppressor p19 (Voinnet et al., 2003). […] Bacterial loads in leaves were determined by the counting of CFU on LB agar plates coated with bacteria recovered at different moments from the third main stem leaf. […]

SMILES: CC/C=C\C[C@H]1C(=O)CC[C@@H]1CC(=O)OC [MeJA, methyl jasmonate]
- cathepsin L-like activity [1]: no impact
- bacterial counts (A. tumefaciens): less than a million

From patent US10907168B2, “Jasmonic acid pathway activator” (MEDICAGO INC., priority 2015, dated 2021)
